According to article PMC8373983, “Effect of salinity on the zinc(II) binding efficiency of siderophore functional groups and implications for salinity tolerance mechanisms in barley” (Scientific Reports, 2021):
Read-outs that look alike come from different tables or passages of the source.

Assays:
[1] = tested on: wild and cultivated barley plants; conditions: 0.20 M NaCl; hydroponic, no initial micronutrient deficiencies; cited from earlier work
barley plants = conditions: cited from earlier work
[2] = Zinc(II) hydrolysis constants, potentiometric titration in NaCl; format: physicochemical; conditions: T = 298.1 K
Description: A 30 ml solution containing each ligand ([L] = 5 – 10 mM), NaCl and HCl was titrated with standard NaOH solutions. For the zinc(II)/ligand systems, the titrant solutions consisted of different amounts of ligand ([L] = 5 − 10 mM), zinc(II) ([Zn] = 0.5—5 mM) and a suitable amount of HCl and NaCl. All the measurements were carried out with an excess of the ligand, with respect to zinc(II) and at different zinc(II):ligand molar ratios. The selection of ratios investigated was determined by simulating titrations using Hyperquad Simulation and Speciation computer software (HySS)[41]. [Zn] and [L] were negligible compared to the background electrolyte concentrations. […] To account for the influence of zinc(II) hydrolysis in the zinc(II)/ligand systems, zinc(II) titrations were carried out separately at each ionic strength to determine the hydroxide constants so that these constants could be included in the equilibrium model used to refine the titration data. In these titrations, the zinc(II) concentration in the analyte solution was 0.7 mM.
The software program Hyperquad was used to determine the equilibrium model and to calculate pKa and stability constants from the potentiometric data set[43]. For each set of pKa constants or zinc(II):ligand ratio studied, at least two repeat titrations were performed. The titration curves for each system were treated as a single set when refining the stability constants. This meant that the refinement procedure was run on both curves at the same time to derive a single set of constants. The error reported on the stability constants is the standard deviation given in the Hyperquad output file. Examples of Hyperquad files for the zinc(II)/PYR system are provided on the Zenodo repository (https://doi.org/10.5281/zenodo.4641710).

Compound: [Cl-].[Na+] [NaCl]
- increase in phytosiderophore release [1]: 2.5–3 times
- Zinc(II) content ratio (barley plants; Leaves, Iranis, 0.08 M NaCl, pH 7.5, soil, 350 μmol/mol CO2): 0.88
- Zinc(II) content ratio (barley plants; Leaves, Iranis, 0.08 M NaCl, pH 7.5, soil, 700 μmol/mol CO2): 1.25
- Zinc(II) content ratio (barley plants; Leaves, Iranis, 0.16 M NaCl, pH 7.5, soil, 350 μmol/mol CO2): 0.94
- Zinc(II) content ratio (barley plants; Leaves, Iranis, 0.16 M NaCl, pH 7.5, soil, 700 μmol/mol CO2): 1.19
- Zinc(II) content ratio (barley plants; Leaves, Iranis, 0.24 M NaCl, pH 7.5, soil, 350 μmol/mol CO2): 1.35
- Zinc(II) content ratio (barley plants; Leaves, Iranis, 0.24 M NaCl, pH 7.5, soil, 700 μmol/mol CO2): 1.31
- Zinc(II) content ratio (barley plants; Roots, CM72, 0.15 M NaCl, pH 6.5, soil, Cr 0 μM): 0.68
- Zinc(II) content ratio (barley plants; Roots, CM72, 0.15 M NaCl, pH 6.5, soil, Cr 10 μM): 0.66
- Zinc(II) content ratio (barley plants; Roots, CM72, 0.15 M NaCl, pH 6.5, soil, Cr 50 μM): 0.82
- Zinc(II) content ratio (barley plants; Roots, Gairdner, 0.15 M NaCl, pH 6.5, soil, Cr 0 μM): 0.51
- Zinc(II) content ratio (barley plants; Roots, Gairdner, 0.15 M NaCl, pH 6.5, soil, Cr 10 μM): 0.56
- Zinc(II) content ratio (barley plants; Roots, Gairdner, 0.15 M NaCl, pH 6.5, soil, Cr 50 μM): 0.59
- Zinc(II) content ratio (barley plants; Roots, Iranis, 0.08 M NaCl, pH 7.5, soil, 350 μmol/mol CO2): 1.08
- Zinc(II) content ratio (barley plants; Roots, Iranis, 0.08 M NaCl, pH 7.5, soil, 700 μmol/mol CO2): 1.11
- Zinc(II) content ratio (barley plants; Roots, Iranis, 0.16 M NaCl, pH 7.5, soil, 350 μmol/mol CO2): 0.90
- Zinc(II) content ratio (barley plants; Roots, Iranis, 0.16 M NaCl, pH 7.5, soil, 700 μmol/mol CO2): 1.00
- Zinc(II) content ratio (barley plants; Roots, Iranis, 0.24 M NaCl, pH 7.5, soil, 350 μmol/mol CO2): 0.97
- Zinc(II) content ratio (barley plants; Roots, Iranis, 0.24 M NaCl, pH 7.5, soil, 700 μmol/mol CO2): 0.96
- Zinc(II) content ratio (barley plants; Shoots, CM72, 0.15 M NaCl, pH 6.5, soil, Cr 0 μM): 0.79
- Zinc(II) content ratio (barley plants; Shoots, CM72, 0.15 M NaCl, pH 6.5, soil, Cr 10 μM): 0.82
- Zinc(II) content ratio (barley plants; Shoots, CM72, 0.15 M NaCl, pH 6.5, soil, Cr 50 μM): 0.98
- Zinc(II) content ratio (barley plants; Shoots, Gairdner, 0.15 M NaCl, pH 6.5, soil, Cr 0 μM): 0.67
- Zinc(II) content ratio (barley plants; Shoots, Gairdner, 0.15 M NaCl, pH 6.5, soil, Cr 10 μM): 0.72
- Zinc(II) content ratio (barley plants; Shoots, Gairdner, 0.15 M NaCl, pH 6.5, soil, Cr 50 μM): 0.97
- Zinc(II) content ratio (barley plants; Stems, Iranis, 0.08 M NaCl, pH 7.5, soil, 350 μmol/mol CO2): 1.25
- Zinc(II) content ratio (barley plants; Stems, Iranis, 0.08 M NaCl, pH 7.5, soil, 700 μmol/mol CO2): 0.95
- Zinc(II) content ratio (barley plants; Stems, Iranis, 0.16 M NaCl, pH 7.5, soil, 350 μmol/mol CO2): 0.81
- Zinc(II) content ratio (barley plants; Stems, Iranis, 0.16 M NaCl, pH 7.5, soil, 700 μmol/mol CO2): 0.95
- Zinc(II) content ratio (barley plants; Stems, Iranis, 0.24 M NaCl, pH 7.5, soil, 350 μmol/mol CO2): 1.19
- Zinc(II) content ratio (barley plants; Stems, Iranis, 0.24 M NaCl, pH 7.5, soil, 700 μmol/mol CO2): 1.16
- Zinc(II) content ratio (barley plants; Whole-plant, Bajwar-200, 0.04 M NaCl, pH 5.6, hydroponic): 0.99
- Zinc(II) content ratio (barley plants; Whole-plant, Bajwar-200, 0.08 M NaCl, pH 5.6, hydroponic): 1.03
- Zinc(II) content ratio (barley plants; Whole-plant, Bajwar-200, 0.12 M NaCl, pH 5.6, hydroponic): 1.18
- Zinc(II) content ratio (barley plants; Whole-plant, TARM-92, 0.09 M NaCl, pH 8.1, soil, seeds soaked in 0.5 mM Kinetin): 1.12
- Zinc(II) content ratio (barley plants; Whole-plant, TARM-92, 0.09 M NaCl, pH 8.1, soil, seeds soaked in 2.0 mM GA3): 2.00
- Zinc(II) content ratio (barley plants; Whole-plant, TARM-92, 0.09 M NaCl, pH 8.1, soil, seeds soaked in H2O): 1.07
- Zinc(II) content ratio (barley plants; Whole-plant, TARM-92, 0.16 M NaCl, pH 8.1, soil, seeds soaked in 0.5 mM Kinetin): 1.13
- Zinc(II) content ratio (barley plants; Whole-plant, TARM-92, 0.16 M NaCl, pH 8.1, soil, seeds soaked in 2.0 mM GA3): 1.06
- Zinc(II) content ratio (barley plants; Whole-plant, TARM-92, 0.16 M NaCl, pH 8.1, soil, seeds soaked in H2O): 1.09
- Zinc(II) content ratio (barley plants; Whole-plant, TARM-92, 0.24 M NaCl, pH 8.1, soil, seeds soaked in 0.5 mM Kinetin): 1.05
- Zinc(II) content ratio (barley plants; Whole-plant, TARM-92, 0.24 M NaCl, pH 8.1, soil, seeds soaked in 2.0 mM GA3): 0.88
- Zinc(II) content ratio (barley plants; Whole-plant, TARM-92, 0.24 M NaCl, pH 8.1, soil, seeds soaked in H2O): 1.17

Compound: [Cl-].[Cl-].[Zn+2] [Zinc(II), ZnCl2]
- log β, Zn2+ + 2OH- = [Zn(OH)2] ([2]; 0.05 M NaCl): 15.40±0.06
- log β, Zn2+ + 3OH- = [Zn(OH)3]- ([2]; 0.05 M NaCl): 25.16±0.09
- log β, Zn2+ + 2OH- = [Zn(OH)2] ([2]; 0.15 M NaCl): 15.76±0.01
- log β, Zn2+ + 3OH- = [Zn(OH)3]- ([2]; 0.15 M NaCl): 26.15±0.04
- log β, Zn2+ + 2OH- = [Zn(OH)2] ([2]; 0.30 M NaCl): 15.77±0.01
- log β, Zn2+ + 3OH- = [Zn(OH)3]- ([2]; 0.30 M NaCl): 26.10±0.03
- log β, Zn2+ + 2OH- = [Zn(OH)2] ([2]; 0.70 M NaCl): 15.93±0.01
- log β, Zn2+ + 3OH- = [Zn(OH)3]- ([2]; 0.70 M NaCl): 26.51±0.04
- log β, Zn2+ + 2OH- = [Zn(OH)2] ([2]; 1.00 M NaCl): 16.05±0.01
- log β, Zn2+ + 3OH- = [Zn(OH)3]- ([2]; 1.00 M NaCl): 26.56±0.03
